Active and inactive are the calls of the source.
How the values were obtained:
[1] = molecular target: T1, RNA-binding protein pos-1 (Caenorhabditis elegans, UniProt G5EF15); assay: disruptors of C. elegans POS-1 RNA interaction – biochemical, fluorescence polarization, dose response (AID 1964);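 further: purified POS-1 fused to maltose binding protein made in E. coli; potency of compounds blocking POS-1 binding to fluorescent RNA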
T1 sequence (G5EF15 whole entry): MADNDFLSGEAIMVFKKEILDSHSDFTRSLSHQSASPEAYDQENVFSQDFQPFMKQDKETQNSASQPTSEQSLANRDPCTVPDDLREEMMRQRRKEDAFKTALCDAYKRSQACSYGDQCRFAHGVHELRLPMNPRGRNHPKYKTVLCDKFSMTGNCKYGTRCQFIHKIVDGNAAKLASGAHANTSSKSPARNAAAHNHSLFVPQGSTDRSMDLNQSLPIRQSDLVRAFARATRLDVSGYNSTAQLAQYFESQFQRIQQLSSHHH

[2] = molecular target: T2, Acyl-homoserine lactone acylase PvdQ (Pseudomonas aeruginosa (strain LESB58), UniProt Q9I194); assay: PvdQ acylase enzyme activity blockers – biochemical, fluorescence, plate reader and imaging, cherry-picks, dose response (AID 493231)
T2 sequence (Q9I194 whole entry): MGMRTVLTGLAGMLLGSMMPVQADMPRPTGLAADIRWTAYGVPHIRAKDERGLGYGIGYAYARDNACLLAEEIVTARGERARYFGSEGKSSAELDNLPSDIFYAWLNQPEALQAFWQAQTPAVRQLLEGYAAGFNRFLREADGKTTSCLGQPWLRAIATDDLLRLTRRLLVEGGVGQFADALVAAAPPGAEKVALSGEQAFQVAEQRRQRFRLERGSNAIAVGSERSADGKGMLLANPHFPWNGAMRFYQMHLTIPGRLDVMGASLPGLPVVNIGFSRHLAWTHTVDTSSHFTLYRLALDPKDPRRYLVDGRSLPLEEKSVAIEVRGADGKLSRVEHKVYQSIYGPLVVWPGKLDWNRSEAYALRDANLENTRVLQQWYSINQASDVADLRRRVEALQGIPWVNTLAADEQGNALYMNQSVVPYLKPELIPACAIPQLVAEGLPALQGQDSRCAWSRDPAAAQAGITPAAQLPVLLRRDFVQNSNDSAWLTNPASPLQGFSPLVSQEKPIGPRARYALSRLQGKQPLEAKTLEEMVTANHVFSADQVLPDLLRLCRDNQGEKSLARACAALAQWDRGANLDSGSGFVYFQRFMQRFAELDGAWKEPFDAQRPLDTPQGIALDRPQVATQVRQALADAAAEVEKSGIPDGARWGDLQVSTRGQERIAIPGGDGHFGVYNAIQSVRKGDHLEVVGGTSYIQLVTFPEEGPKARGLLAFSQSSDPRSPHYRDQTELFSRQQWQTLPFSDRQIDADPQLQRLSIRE

[3] = molecular target: Heat shock protein HSP 90-alpha (Homo sapiens, UniProt P07900); assay: Luminescence-based dose response biochemical high throughput screening assay for inhibitors of the Heat Shock Protein 90 (HSP90). [Related pubchem assays: 1831 (Summary AID.), 1846 (Confirmation screen.), 1789 (Primary screen.)]
[4] = molecular target: T3, Zinc finger protein mex-5 (Caenorhabditis elegans, UniProt Q9XUB2); assay: potency of MEX-5 RNA-binding blockers – biochemical, C. elegans, fluorescence polarization, dose response (AID 1960)
T3 sequence (Q9XUB2 whole entry): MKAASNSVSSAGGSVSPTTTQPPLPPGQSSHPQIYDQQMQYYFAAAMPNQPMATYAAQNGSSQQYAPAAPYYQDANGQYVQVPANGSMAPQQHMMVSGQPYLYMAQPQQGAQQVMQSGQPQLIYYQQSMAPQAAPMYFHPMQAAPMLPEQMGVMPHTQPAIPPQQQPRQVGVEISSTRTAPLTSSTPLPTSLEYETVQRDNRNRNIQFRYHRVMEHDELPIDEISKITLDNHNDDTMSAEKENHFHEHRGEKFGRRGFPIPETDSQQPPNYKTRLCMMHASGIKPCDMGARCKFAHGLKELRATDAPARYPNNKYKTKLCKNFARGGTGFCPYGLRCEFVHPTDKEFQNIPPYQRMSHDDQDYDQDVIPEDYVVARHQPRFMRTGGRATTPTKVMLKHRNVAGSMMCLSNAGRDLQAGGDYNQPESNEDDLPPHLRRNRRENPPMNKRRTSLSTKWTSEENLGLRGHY

Aspartyl aminopeptidase = molecular target: T4, Aspartyl aminopeptidase (Plasmodium falciparum 3D7, UniProt Q8I2J3); assay: Counterscreen for inhibitors of M1 and M17 aminopeptidases: QFRET-based biochemical high throughput dose response assay for inhibitors of the Plasmodium falciparum M18 Aspartyl Aminopeptidase (PFM18AAP). [Related PubChem assays: 1619 (Screening assay (M17LAP inhibitors).), 1445 (Screening assay (M1AAP inhibitors).)]
T4 sequence (Q8I2J3 whole entry): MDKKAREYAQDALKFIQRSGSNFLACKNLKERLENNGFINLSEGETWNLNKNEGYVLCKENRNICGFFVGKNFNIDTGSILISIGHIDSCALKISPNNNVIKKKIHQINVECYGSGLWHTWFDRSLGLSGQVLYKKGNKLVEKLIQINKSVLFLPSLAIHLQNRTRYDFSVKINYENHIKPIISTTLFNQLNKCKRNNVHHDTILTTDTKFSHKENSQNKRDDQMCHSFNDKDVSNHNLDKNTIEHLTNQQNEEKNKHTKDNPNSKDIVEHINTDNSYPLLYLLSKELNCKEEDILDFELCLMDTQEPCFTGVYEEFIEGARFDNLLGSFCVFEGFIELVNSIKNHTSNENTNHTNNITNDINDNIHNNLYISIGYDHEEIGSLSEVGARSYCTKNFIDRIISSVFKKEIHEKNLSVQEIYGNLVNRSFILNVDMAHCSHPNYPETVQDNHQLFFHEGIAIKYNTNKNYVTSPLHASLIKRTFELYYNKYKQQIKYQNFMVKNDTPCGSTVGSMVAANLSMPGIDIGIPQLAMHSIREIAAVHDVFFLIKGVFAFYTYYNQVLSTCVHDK

Leucine aminopeptidase = molecular target: T5, Leucine aminopeptidase (Plasmodium falciparum 3D7, UniProt Q8IL11); assay: P. falciparum M17LAP inhibitors, primary screen, biochemical, fluorogenic H-Leu-NHMec substrate, 1536-well (AID 1619); assay type: functional
T5 sequence (Q8IL11 whole entry): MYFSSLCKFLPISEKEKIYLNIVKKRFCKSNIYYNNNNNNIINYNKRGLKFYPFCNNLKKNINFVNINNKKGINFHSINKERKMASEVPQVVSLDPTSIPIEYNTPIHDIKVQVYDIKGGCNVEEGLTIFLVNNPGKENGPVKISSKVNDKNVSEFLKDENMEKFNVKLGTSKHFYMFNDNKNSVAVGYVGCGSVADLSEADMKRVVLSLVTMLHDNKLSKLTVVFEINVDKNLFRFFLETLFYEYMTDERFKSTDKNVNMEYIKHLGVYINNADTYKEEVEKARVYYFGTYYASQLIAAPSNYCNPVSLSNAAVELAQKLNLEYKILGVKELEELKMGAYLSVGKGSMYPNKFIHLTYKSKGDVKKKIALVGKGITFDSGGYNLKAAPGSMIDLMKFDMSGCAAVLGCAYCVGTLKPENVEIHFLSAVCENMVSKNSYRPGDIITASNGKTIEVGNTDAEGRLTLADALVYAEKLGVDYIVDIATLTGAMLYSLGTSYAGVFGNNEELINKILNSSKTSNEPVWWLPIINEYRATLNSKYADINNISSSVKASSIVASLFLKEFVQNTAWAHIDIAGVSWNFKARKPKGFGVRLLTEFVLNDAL

Bcl-2-like protein 10 = molecular target: T6, Bcl-2-like protein 10 (Homo sapiens, UniProt Q9HD36); assay: Bcl-B/TR3 peptide binding disruption – biochemical, fluorescence polarization, FITC-TR3 peptide, selectivity assay for Bfl-1 inhibitor project, primary screen (AID 748);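 further: fluorescence polarization from a fluorescein-labelled TR3 peptide binding purified Bcl-B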
T6 sequence (Q9HD36 whole entry): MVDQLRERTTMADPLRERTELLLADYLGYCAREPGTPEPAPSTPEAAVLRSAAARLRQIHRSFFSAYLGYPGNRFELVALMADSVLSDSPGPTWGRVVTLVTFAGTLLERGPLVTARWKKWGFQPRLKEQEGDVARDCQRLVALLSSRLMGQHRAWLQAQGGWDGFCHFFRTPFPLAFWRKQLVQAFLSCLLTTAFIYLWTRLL

Procathepsin L = Procathepsin L (Homo sapiens, UniProt P07711); assay: CTSL1 protease inhibition – biochemical, QFRET, 1536-well, counter-screen for M1/M17 aminopeptidase inhibitor project, dose response (AID 2214)
Cytochrome P450 2C19 = Cytochrome P450 2C19 (Homo sapiens, UniProt P33261); assay: qHTS Assay for Inhibitors and Substrates of Cytochrome P450 2C19. [Related pubchem assays: 410 ]; assay type: ADME; settings: read-out: Potency
Cytochrome P450 3A4 = Cytochrome P450 3A4 (Homo sapiens, UniProt P08684); settings: Potency;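 further: confirmatory qHTS run detecting inhibitors and substrates of CYP3A4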
Cytochrome P450 2C9 = Cytochrome P450 2C9 (Homo sapiens, UniProt P11712); settings: Potency
[5] = NIH3T3 cell viability loss – ATP luminescence, mouse fibroblasts, counter-screen, dose response (AID 2010); assay type: functional, cell-based;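 further: cells exposed to compound for about 90 hours before reading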
[6] = Trypanosoma cruzi growth suppression in host cells – NIH3T3 host cells, beta-gal luminescence, confirmation (AID 2044); assay type: functional, cell-based;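 further: intracellular parasites grown in NIH/3T3 mouse fibroblasts as host cells; luminescent beta-galactosidase reporter signal from transgenic T. cruzi replicating inside host cells; inhibitors lower the luminescence signal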
Prothrombin = Prothrombin (Homo sapiens, UniProt P00734); assay: Thrombin 1536 HTS Dose Response Confirmation. [Related pubchem assays: 1046 (Thrombin 1536 HTS; hits were confirmed in this assay)]; assay type: functional
[7] = molecular target: Epstein-Barr nuclear antigen 1 (Epstein-Barr virus (strain B95-8) (HHV-4) (Human herpesvirus 4), UniProt P03211); assay: inhibition of EBV nuclear antigen 1 DNA binding – biochemical, fluorescence polarization, 1536-well, dose response (AID 2381); parameters: species or system human gammaherpesvirus 4;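 further: fluorescence polarization of a Cy5 DNA probe bound by EBNA-1 protein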
[8] = molecular target: Lytic switch protein BZLF1 (Epstein-Barr virus (strain B95-8) (HHV-4) (Human herpesvirus 4), UniProt P03206); assay: inhibition of BZLF1 ZTA DNA binding – biochemical, fluorescence polarization, Epstein-Barr virus, 1536-well, counter-screen for EBNA-1 inhibitor project, dose response (AID 2377); parameters: species or system human gammaherpesvirus 4;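 further: fluorescence polarization of Cy5-labelled ZRE DNA probe bound by purified Zta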
[9] = luciferase reporter signal suppression in cells – H4 neuroglioma cells, luminescence, dose response (AID 1990); assay type: functional, cell-based
[10] = alpha-synuclein stem-loop luciferase translation blockers – H4 neuroglioma cells, luminescence, confirmation (AID 1988); assay type: functional, cell-based
[11] = Luminescence Cell-Based Dose Response HTS to Identify Inhibitors of 5'UTR Stem-Loop Driven Prion Protein mRNA Translation in H4 Neuroglioblastoma Cells. [Related pubchem assays: 1827 (Project Summary), 1813 (Primary HTS)]; assay type: functional
Protein skinhead-1 = molecular target: T7, Protein skinhead-1 (Caenorhabditis elegans, UniProt P34707); assay type: functional
T7 sequence (P34707 whole entry): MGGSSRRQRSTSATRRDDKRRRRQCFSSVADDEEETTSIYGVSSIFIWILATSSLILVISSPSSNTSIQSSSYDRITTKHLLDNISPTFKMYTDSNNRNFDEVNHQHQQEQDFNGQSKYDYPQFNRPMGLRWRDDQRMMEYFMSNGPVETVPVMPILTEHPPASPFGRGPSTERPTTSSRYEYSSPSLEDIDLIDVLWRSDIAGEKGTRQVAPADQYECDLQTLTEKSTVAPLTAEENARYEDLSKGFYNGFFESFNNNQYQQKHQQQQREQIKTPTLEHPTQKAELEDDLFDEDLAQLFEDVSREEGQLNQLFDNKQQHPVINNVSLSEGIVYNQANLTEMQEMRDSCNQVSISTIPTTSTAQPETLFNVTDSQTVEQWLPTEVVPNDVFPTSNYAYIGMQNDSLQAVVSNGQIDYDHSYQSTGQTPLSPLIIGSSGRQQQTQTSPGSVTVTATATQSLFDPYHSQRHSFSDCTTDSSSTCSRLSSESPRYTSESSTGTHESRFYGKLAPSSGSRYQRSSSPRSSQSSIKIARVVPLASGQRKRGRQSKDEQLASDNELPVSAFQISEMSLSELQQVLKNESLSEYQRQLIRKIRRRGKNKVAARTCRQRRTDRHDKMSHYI

Sequence of Cytochrome P450 2C19 (P33261 whole entry): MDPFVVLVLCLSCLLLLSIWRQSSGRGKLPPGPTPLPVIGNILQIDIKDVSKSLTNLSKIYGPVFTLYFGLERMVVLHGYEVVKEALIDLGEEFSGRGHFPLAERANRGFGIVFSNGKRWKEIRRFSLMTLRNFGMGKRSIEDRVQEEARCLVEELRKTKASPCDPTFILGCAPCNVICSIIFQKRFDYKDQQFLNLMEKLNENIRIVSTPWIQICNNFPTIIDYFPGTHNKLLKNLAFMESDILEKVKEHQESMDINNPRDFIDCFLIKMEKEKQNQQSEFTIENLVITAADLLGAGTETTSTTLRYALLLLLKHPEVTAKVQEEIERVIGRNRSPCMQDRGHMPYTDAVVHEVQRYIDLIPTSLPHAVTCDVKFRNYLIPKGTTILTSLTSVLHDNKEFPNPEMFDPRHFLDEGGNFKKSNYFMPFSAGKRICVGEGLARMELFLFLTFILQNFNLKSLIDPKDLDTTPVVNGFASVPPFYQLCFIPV
Sequence of Lytic switch protein BZLF1 (P03206 whole entry): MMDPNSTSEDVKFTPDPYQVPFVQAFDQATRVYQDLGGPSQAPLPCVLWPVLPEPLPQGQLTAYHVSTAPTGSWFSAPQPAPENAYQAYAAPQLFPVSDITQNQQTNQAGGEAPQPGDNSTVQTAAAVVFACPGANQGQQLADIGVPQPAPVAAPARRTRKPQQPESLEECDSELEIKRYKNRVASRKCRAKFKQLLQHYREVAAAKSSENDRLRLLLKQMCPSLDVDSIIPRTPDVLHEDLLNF
Sequence of Epstein-Barr nuclear antigen 1 (P03211 whole entry): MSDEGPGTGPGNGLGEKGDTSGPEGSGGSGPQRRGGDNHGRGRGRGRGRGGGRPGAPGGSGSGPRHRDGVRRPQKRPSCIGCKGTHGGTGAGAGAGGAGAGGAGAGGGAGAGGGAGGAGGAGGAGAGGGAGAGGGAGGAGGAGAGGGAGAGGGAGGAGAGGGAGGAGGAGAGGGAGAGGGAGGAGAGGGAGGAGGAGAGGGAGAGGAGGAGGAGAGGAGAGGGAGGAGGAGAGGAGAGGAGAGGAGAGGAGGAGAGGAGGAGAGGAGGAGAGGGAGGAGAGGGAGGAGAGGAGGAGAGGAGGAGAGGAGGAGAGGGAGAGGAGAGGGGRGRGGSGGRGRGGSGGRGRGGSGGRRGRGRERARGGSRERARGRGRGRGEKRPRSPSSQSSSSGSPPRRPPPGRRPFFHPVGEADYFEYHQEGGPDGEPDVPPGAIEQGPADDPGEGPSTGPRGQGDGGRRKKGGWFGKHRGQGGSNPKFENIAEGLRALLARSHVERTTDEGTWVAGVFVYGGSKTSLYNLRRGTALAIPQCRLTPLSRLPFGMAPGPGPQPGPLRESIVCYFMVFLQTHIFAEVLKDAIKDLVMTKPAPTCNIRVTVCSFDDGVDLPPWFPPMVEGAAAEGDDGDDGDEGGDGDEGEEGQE
Sequence of Procathepsin L (P07711 whole entry): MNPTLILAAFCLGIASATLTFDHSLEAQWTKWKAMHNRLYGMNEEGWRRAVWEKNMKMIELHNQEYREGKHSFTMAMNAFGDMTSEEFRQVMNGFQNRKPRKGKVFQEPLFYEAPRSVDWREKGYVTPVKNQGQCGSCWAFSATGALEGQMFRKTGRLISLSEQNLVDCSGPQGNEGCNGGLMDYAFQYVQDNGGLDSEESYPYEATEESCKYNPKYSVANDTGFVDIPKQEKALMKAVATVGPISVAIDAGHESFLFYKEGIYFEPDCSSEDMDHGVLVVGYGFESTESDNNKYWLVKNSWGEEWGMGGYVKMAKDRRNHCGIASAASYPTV
Sequence of Cytochrome P450 3A4 (P08684 whole entry): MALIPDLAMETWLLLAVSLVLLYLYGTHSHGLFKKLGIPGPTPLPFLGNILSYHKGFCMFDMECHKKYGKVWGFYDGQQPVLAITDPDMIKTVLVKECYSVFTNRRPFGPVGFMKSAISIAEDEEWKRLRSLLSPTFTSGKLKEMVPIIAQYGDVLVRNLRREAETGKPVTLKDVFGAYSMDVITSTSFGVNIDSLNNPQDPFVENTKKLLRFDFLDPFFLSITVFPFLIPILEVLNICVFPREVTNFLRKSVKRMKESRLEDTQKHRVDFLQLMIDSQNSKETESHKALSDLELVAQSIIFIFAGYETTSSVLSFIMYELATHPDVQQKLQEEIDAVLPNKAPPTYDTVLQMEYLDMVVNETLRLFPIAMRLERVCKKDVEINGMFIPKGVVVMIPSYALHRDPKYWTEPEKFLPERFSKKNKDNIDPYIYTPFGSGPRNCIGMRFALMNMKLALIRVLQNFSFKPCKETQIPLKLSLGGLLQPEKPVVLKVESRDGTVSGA
Sequence of Cytochrome P450 2C9 (P11712 whole entry): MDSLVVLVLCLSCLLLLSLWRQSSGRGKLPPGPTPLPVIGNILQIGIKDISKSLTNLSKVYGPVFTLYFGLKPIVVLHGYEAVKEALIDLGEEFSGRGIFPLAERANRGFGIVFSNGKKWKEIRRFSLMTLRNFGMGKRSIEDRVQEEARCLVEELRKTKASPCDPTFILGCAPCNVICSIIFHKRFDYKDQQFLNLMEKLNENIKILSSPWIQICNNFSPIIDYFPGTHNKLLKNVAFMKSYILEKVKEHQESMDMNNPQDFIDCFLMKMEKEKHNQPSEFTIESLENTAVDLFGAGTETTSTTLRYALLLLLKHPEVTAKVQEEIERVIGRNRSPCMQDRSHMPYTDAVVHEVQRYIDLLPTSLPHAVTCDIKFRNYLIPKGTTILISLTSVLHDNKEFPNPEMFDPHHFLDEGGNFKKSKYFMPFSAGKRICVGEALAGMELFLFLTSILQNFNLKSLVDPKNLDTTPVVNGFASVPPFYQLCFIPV

SMILES: CCOC(=O)c1ccc(-c2ccc(C=O)o2)cc1
- EC50 [1]: 43.6 µM (active)
- AC50 [2]: 9.42 µM (active)
- IC50 [3]: 10.3 µM (not active)
- EC50 [4]: > 300 µM (not active)

SMILES: COC(=O)c1cccc(NC(=O)CSc2nc(C)cc(O)n2)c1
- IC50 (Aspartyl aminopeptidase): > 73.5 µM (not active)
- IC50 (Leucine aminopeptidase): 7.51 µM (active)
- IC50 (Bcl-2-like protein 10): 56.8 µM (inactive)
- IC50 (Procathepsin L): > 59.6 µM (not active)

SMILES: COC(=O)C/C=C/C(C)C(OCc1cccc(Br)c1)C(C)C(OC)C1CCCCC1 (stereo unspecified)
- AC50 (Cytochrome P450 2C19): 5.01 µM (inconclusive)
- AC50 (Cytochrome P450 3A4): 3.98 µM (inconclusive)

SMILES: Cc1ccc(/C=C/C2=CC3(C)CC2(C)C(c2ccc(C)cc2)CC3=O)cc1 (stereo unspecified)
- AC50 (Cytochrome P450 2C19): 0.631 µM (inconclusive)
- AC50 (Cytochrome P450 2C9): 3.98 µM (inconclusive)

SMILES: CCOc1ccc(CNCCc2ccc3c(c2)OCO3)cc1
- EC50 [5]: > 60 µM (not active)
- EC50 [6]: < 0.1 µM (active)
- EC50 (cells): 0.496 µM (active)

SMILES: CC(=O)N1c2ccccc2N2C(c3c(C)c(C)cc(C)c3C)=NON12
- IC50 (Prothrombin): 3.37 µM (active)

SMILES: COc1ccc2oc(C(=O)OCC(=O)Nc3cc(S(=O)(=O)N4CCOCC4)ccc3C)c(C)c2c1
- IC50 [7]: 5.76 µM (active)
- IC50 [8]: > 111 µM (not active)

SMILES: CCn1nnc(-c2ccccc2NC(=O)c2cccc(-n3cnnn3)c2)n1
- IC50 [7]: 13.5 µM (not active)
- EC50 [9]: 22.5 µM (active)
- EC50 [10]: > 120 µM (not active)
- IC50 [8]: > 111 µM (not active)
- EC50 [11]: 14.9 µM (active)

SMILES: CC(C)OCCCn1c(=S)[nH]c2cc3c(cc2c1=O)OCO3
- IC50 (Protein skinhead-1): > 100 µM (inactive)
- IC50 (Prothrombin): > 50 µM (not active)

SMILES: Cc1ccc(CNC(=O)CCC2CCCN(Cc3c(C)nn(C(C)C)c3C)C2)o1 (stereo unspecified)
- EC50 [5]: > 60 µM (not active)
- EC50 [6]: < 0.1 µM (active)
- EC50 (cells): 0.011 µM (active)

SMILES: COc1ccc(C(C)(C)C)cc1NC(=O)C1CC=CCC1C(=O)O (stereo unspecified)
- IC50 (Aspartyl aminopeptidase): > 73.5 µM (not active)
- IC50 (Leucine aminopeptidase): 3.05 µM (active)
- IC50 (Procathepsin L): > 59.6 µM (not active)
